Tests used:
AKH12 cells = experiment: Neutral red cell viability assay, AKH12; type: cell-based, human; conditions: for reduction of cell viability, AKH12: 50 µM, 24 h, first screening; for IC50: Homo sapiens, 24 h treatment, neutral red, read-out: LD50 AKH12 (HCC)
Method: (§1) The human hepatocellular carcinoma (HCC) cell line HUH7 was purchased from ATCC (LGC standards GmbH, Wesel, Germany). The Austrian human HCC cell line AKH12 has been well characterized and was kindly provided by Prof. Bettina Grasl-Kraupp. HUH7 cells were cultured in Dulbecco’s modified Eagle’s medium (Thermo Fisher Scientific, Waltham, MA, USA) containing 10% heat-inactivated fetal bovine serum (FBS) (Sigma-Aldrich, St. Louis, MO, USA), 1% penicillin-streptomycin (10,000 U/mL) (Thermo Fisher Scientific, Waltham, MA, USA), and 1% minimum essential medium nonessential amino acids (100x) (Thermo Fisher Scientific, Waltham, MA, USA). AKH12 cells were cultured in RPMI1640 medium (Sigma-Aldrich, St. Louis, MO, USA) containing 10% heat-inactivated FBS. DAOY and D283Med (short D283) medulloblastoma (MB) cells were purchased from ATCC (LGC standards GmbH, Wesel, Germany). D425Med (short D425) and UW228-2 were provided by Thomas Ströbel from the Institute of Neurology Medical University of Vienna. The cells were cultured in Dulbecco’s modified Eagle’s medium (Sigma-Aldrich, St. Louis, MO, USA) containing 10% FBS (Sigma-Aldrich, St. Louis, MO, USA), 2% L-Glutamine (Sigma-Aldrich, St. Louis, MO, USA), and 0.2% Normocin (Sigma-Aldrich, St. Louis, MO, USA). U-251 MG (short U251) glioblastoma (GBM) cell line was purchased from Sigma-Aldrich and cultured in Dulbecco’s modified Eagle’s medium (Sigma-Aldrich, St. Louis, MO, USA) containing 10% FBS (Sigma-Aldrich, St. Louis, MO, USA), 2% L-Glutamine (Sigma-Aldrich, St. Louis, MO, USA), and 0.2% Normocin (Sigma-Aldrich, St. Louis, Missouri, USA). Human umbilical vein endothelial cells (HUVECs) were provided by Brigitte Winter from the Department of Surgery Medical University of Vienna and were grown in endothelial cell growth medium-2 BulletKitTM (Lonza, Basel, Switzerland) under standard tissue culture conditions. All cells were incubated at 37 °C in a 5% CO2 atmosphere and regularly checked for mycoplasma contamination.
(§2) Cell viability was determined using a neutral red assay, as previously described. The cells were placed in 24-well plates and grown to reach 70–80% confluency prior to treatment. After treatment for 24 h, cells were incubated with neutral red at a concentration of 50 µg/mL in serum-free medium for 2 h at 37 °C. Cells were then washed 2x and incubated with 1% acetic acid in 70% ethanol. The dye concentration was measured photometrically at 562 nm. The percentage of survival was calculated considering DMSO-treated (indicated as 0 µM concentration) cells as 100% control.
(§3) LD50 was defined as the amount of a toxic agent required to eliminate 50% of the cell population. The LD50 was calculated in each experiment from the respective dose–response curve. All experiments were performed in triplicate wells.

HUVEC cells [1] = experiment: Neutral red cell viability assay, HUVEC (Table 1); type: cell-based; conditions: Table 1, nonmalignant primary cells, 24 h
Method: as §1, §2, §3

D283 cells = experiment: Neutral red cell viability assay, D283; type: cell-based, human; conditions: for reduction of cell viability, D283: 50 µM, 24 h, first screening; for IC50: Homo sapiens, D283, 24 h treatment, read-out: LD50 D283 (MB)
Method: as §1, §2, §3

DAOY cells = experiment: Neutral red cell viability assay, DAOY; type: cell-based, human; conditions: for reduction of cell viability, DAOY: 50 µM, 24 h, first screening; for IC50: Homo sapiens, Daoy, 24 h treatment, neutral red, read-out: LD50 DAOY (MB)
Method: as §1, §2, §3

U251 cells = experiment: Neutral red cell viability assay, U251; type: cell-based, human; conditions: for decrease of cell viability, U251: 50 µM, 24 h, first screening; for IC50: Homo sapiens, U-251, 24 h treatment, neutral red, read-out: LD50 U251 (GBM)
Method: as §1, §2, §3

D425 cells = experiment: Cell viability assay (suspension cell line), MTT/CellTiter Blue, D425; type: cell-based, human; conditions: for reduction of cell viability, D425: 50 µM, 24 h, first screening; for IC50: Homo sapiens, 24 h treatment, suspension cell assay, read-out: LD50 D425 (MB); for HUVEC/D425 LD50 Fold Change: ratio of LD50 HUVEC to LD50 D425; for D425 cell viability as compared to HUVEC cells: dose-response 24 h, Student's t-test, p ≤0.05 / p ≤0.01
Method: as §1, §3
(§4) One day before treatment, 2 × 10^4 of D425Med or HUVEC cells were seeded into 24-well plates and incubated at 37 °C in a humidified atmosphere containing 5% CO2.The cells were treated with different compounds for 24 h. A […] assay using the CellTiter Blue reagent (Promega, Fitchburg, Wisconsin, USA) was performed according to the manufacturer’s protocol. Experiments were performed in triplicate and repeated three times. The percentage of survival was calculated as the ratio using DMSO-treated (indicated as 0 µM concentration) cells as 100% control.

HUVEC cells [2] = experiment: Cell viability assay MTT/CellTiter Blue, HUVEC (Table 2); type: cell-based; conditions: Table 2, nonmalignant primary cells, 24 h, assay as for D425
Method: as §1, §3, §4

UW228-2 cells = experiment: Neutral red cell viability assay, UW228-2; type: cell-based, human; conditions: for reduction of cell viability, UW228-2: 50 µM, 24 h, first screening; for IC50: Homo sapiens, UW228-2, 24 h treatment, neutral red, read-out: LD50 UW228-2 (MB)
Method: as §1, §2, §3

HUH7 cells = experiment: Neutral red cell viability assay, HUH7; type: cell-based, human; conditions: for IC50: Homo sapiens, Huh-7, 24 h treatment, neutral red, read-out: LD50 HUH7 (HCC)
Method: as §1, §2, §3

| SMILES | reduction of cell viability, AKH12 (AKH12 cells) | IC50 (AKH12 cells) [µM] | LD50 HUVEC (HUVEC cells [1]) [µM] | reduction of cell viability, D283 (D283 cells) | IC50 (D283 cells) [µM] | reduction of cell viability, DAOY (DAOY cells) | IC50 (DAOY cells) [µM] | decrease of cell viability, U251 (U251 cells) | IC50 (U251 cells) [µM] | reduction of cell viability, D425 (D425 cells) | IC50 (D425 cells) [µM] | HUVEC/D425 LD50 Fold Change (D425 cells) | LD50 HUVEC (HUVEC cells [2]) [µM] | reduction of cell viability, UW228-2 (UW228-2 cells) | IC50 (UW228-2 cells) [µM] | IC50 (HUH7 cells) [µM] | D425 cell viability as compared to HUVEC cells (D425 cells) | reduction of cell viability, HUH7 (HUH7 cells; 50 µM, 24 h, first screening) |
| --- | --- | --- | --- | --- | --- | --- | --- | --- | --- | --- | --- | --- | --- | --- | --- | --- | --- | --- |
| CC(c1ccccc1)N1CC(NS(=O)(=O)c2cc(C(F)(F)F)cc(C(F)(F)F)c2)C2CCC1C2 [Compound 11g, 3,5-Bis(trifluoromethyl)-N-((2-((S)-1-phenylethyl)-(1S,4S,5R)-2-azabicyclo[3.2.1]octan-4-yl)benzenesulfonamide] | reduced cell viability below LD50 | 28 ± 1.72 | 18.68 ± 1.97 | reduced cell viability | 17.2 ± 0.89 | reduced cell viability | 20.4 ± 1.33 | more than 50% | 24.8 ± 0.92 | reduced cell viability | 11.2 ± 1.73 | 1.42 | 16 ± 2.29 | reduced cell viability | 20.1 ± 1.34 | 20 ± 1.1 |  |  |
| CC(=O)Nc1ccc(S(=O)(=O)N(CCN(CC2C3CCC(C3)N2C(C)c2ccccc2)S(=O)(=O)c2ccc(NC(C)=O)cc2)CC2C3CCC(C3)N2C(C)c2ccccc2)cc1 [Compound 12i, Bis-N,N-(4-(N-(((1S,3R,4R)-2-((S)-1-phenylethyl)-2-azabicyclo[2.2.1]heptan-3-yl)methyl)sulfamoyl)ethyl)phenyl)acetamide] | reduced cell viability below LD50 | 5.75 ± 0.47 | 3.16 ± 0.15 | reduced cell viability | 21.8 ± 1.9 | reduced cell viability | 12.9 ± 1.59 | more than 50% | 15.3 ± 1.59 | reduced cell viability | 15.6 ± 0.93 | 0.57 | 8.91 ± 2.11 | reduced cell viability | 28.4 ± 2.11 | 7.75 ± 0.84 |  |  |
| Cc1ccc(-c2ccc(S(=O)(=O)NCC3C4CCC(C4)N3C(C)c3ccccc3)cc2)cc1 [Compound 10b, 4-(4-Tolyl)-N-((2-((S)-1-phenylethyl)-(1S,3R,4R)-2-azabicyclo[2.2.1]heptane-3-yl)benzenesulfonamide] | reduced cell viability below LD50 | 23.7 ± 1.27 | 12.88 ± 2.13 |  | 31.3 ± 1.32 |  |  | more than 50% | 20.4 ± 1.58 |  | 16.4 ± 2.34 | 1.76 | 28.9 ± 2.97 |  |  | 21.3 ± 1.23 | significantly reduced D425 cell viability as compared to HUVEC cells |  |
| COc1ccc(-c2ccc(S(=O)(=O)NCC3C4CCC(C4)N3C(C)c3ccccc3)cc2)cc1 [Compound 10e, 4-(4-Metoxyphenyl)-N-((2-((S)-1-phenylethyl)-(1S,3R,4R)-2-azabicyclo[2.2.1]heptane-3-yl)benzenesulfonamide] | reduced cell viability below LD50 | 32 ± 2.21 | 9.58 ± 1.88 | reduced cell viability | 15.6 ± 0.59 | reduced cell viability | 15.5 ± 1.62 | more than 50% | 16 ± 2 | reduced cell viability | 11 ± 0.47 | 1.05 | 11.54 ± 2.8 | reduced cell viability | 26.7 ± 1.52 | 16.3 ± 0.69 | significantly reduced D425 cell viability as compared to HUVEC cells |  |
| CC(c1ccccc1)N1C2CCC(C2)C1CN(CC1C2CCC(C2)N1C(C)c1ccccc1)S(=O)(=O)c1ccc(-c2ccccc2)cc1 [Compound 13a, N-Bis-(((1S,3R,4R)-2-((S)-1-phenylethyl)-2-azabicyclo[2.2.1]heptan-3-yl)methyl)-[1,1'-biphenyl]-4-sulfonamide] | reduced cell viability below LD50 | 8 ± 0.28 | 12.13 ± 0.26 | reduced cell viability | 38.4 ± 1.11 | reduced cell viability | 19.2 ± 1.37 | more than 50% | 27.6 ± 1.04 | reduced cell viability | 30.5 ± 1.86 | 0.52 | 16 ± 0.79 | reduced cell viability | 25.9 ± 1.98 | 13.9 ± 0.49 |  |  |
| CC(c1ccccc1)N1CC(NS(=O)(=O)c2ccc(C(F)(F)F)cc2)C2CCC1C2 [Compound 11f, 4-Trifluoromethyl-N-((2-((S)-1-phenylethyl)-(1S,4S,5R)-2-azabicyclo[3.2.1]octan-4-yl)benzenesulfonamide] |  |  | 22.28 ± 1.45 | reduced cell viability | 29.9 ± 1.5 | reduced cell viability | 17.3 ± 0.99 | more than 50% | 31.5 ± 2 | reduced cell viability | 32 ± 1.37 | 0.98 | 31.52 ± 1.16 | reduced cell viability | 31.4 ± 2.12 | 42.7 ± 1.98 |  | more than 50% |

— paper PMC7288168, “Synthesis and Cytotoxic Activity of Chiral Sulfonamides Based on the 2-Azabicycloalkane Skeleton” (Molecules, 2020)
